The values below come from patent CN110483432A, “一类丙烯酸类化合物及其制备方法、药物组合物和用途” (Shanghai Institute of Materia Medica of CAS, priority 2018, dated 2019).

For one data set, the target named is CREB/CRTC2 (Homo sapiens, UniProt P16220+Q53ET0). Nature of the data set: Mammalian two-hybrid (CREB-GAL4-BD / CRTC2-VP16-AD, Gal4-luciferase reporter) test of inhibition of CREB/CRTC2 protein interaction in HEK293 cells. It is filed as cell-based. The settings on record: 50 μM final concentration; HEK293 two-hybrid activation model (Forsklin); overnight; read-out: relative reporter gene activity (vs solvent control DMSO, set to 100%).
Sequence of CREB/CRTC2 (P16220 whole entry, the tested form may be a part): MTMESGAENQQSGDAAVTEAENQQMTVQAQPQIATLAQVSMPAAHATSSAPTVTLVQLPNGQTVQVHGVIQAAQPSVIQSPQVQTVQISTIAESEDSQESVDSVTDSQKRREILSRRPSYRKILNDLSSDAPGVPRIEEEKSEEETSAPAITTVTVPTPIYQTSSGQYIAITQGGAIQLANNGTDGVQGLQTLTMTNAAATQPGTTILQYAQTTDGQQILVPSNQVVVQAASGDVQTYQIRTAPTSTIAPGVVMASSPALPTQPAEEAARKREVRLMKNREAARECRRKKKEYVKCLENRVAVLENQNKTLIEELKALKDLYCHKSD
Sequence of CREB/CRTC2 (Q53ET0 whole entry, the tested form may be a part): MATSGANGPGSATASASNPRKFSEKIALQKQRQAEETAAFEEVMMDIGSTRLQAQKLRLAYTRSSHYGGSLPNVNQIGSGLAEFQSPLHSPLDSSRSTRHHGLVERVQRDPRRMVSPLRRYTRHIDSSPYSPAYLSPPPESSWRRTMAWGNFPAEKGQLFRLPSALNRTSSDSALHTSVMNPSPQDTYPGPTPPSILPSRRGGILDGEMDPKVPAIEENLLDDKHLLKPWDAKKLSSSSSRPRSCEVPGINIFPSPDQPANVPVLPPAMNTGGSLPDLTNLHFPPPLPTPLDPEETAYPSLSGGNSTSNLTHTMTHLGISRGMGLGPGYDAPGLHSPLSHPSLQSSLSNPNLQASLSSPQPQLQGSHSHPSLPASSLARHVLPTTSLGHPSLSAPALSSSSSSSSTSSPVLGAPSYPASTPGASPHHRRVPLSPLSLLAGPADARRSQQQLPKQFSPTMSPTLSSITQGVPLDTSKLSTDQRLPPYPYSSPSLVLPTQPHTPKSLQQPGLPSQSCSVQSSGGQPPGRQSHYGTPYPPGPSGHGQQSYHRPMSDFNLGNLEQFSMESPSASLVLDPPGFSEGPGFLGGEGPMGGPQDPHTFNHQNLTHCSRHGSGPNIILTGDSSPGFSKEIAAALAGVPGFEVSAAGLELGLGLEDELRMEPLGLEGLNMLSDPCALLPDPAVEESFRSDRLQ

The nature of data set [1]: Cytotoxicity test in HEK293 cells (CCK8). As to conditions: human, overnight, HEK293, CCK8 OD450, read-out: cell viability. The format is cell-based.
For data set [2], the system named is CREB phosphorylation (Ser133) (CREB的磷酸化(Ser133)). Description: Western blot of CREB phosphorylation (Ser133) in glucagon signalling pathway. As to conditions: 20 μM, 1 h preincubation, glucagon 100 nM, 30 min, primary hepatocytes or liver tissue. The format is cell-based, mouse. Background: Immunoblotting shows a protein as a band on a membrane.

Regarding `O=C(/C=C/c1cccc(-c2ccccc2)c1)N1C(=O)OC[C@@H]1c1ccccc1` [A57, (S,E)-3-(3-([1,1’-联苯基]-3-基)丙烯酰)-4-苯基噁唑烷-2-酮], the remaining activity at 50 µM at CREB/CRTC2 is under 30%. The viability at 50 µM in data set [1] was about 100%. In addition, the “effect on glucagon-stimulated CREB phosphorylation level” value in data set [2] is reported as “没有显著的影响”.

What is called viability is the share of living cells, or the viability signal relative to a control.
